Assays:
TYS-Luc cells = assay: Long-term cell culture experiment (treat 2 weeks, regrow 4 weeks), MTS, TYS-Luc; format: cell-based, human
Protocol: To simulate the effect of several weeks of treatment of a tumor in a mouse xenograft, long-term cell culture experiments were performed. TYS-Luc cells (T47DERαY537S-Luc cells; ERαY537S is the most lethal ERα mutation seen in metastatic breast cancer) were plated at 4,000 cells/well in 96 well plates. […] After 2 weeks (medium change every 2 days) cell number was determined using MTS and a standard curve of absorbance versus cell number for TYS-Luc cells. Notes: (i) Bars denote the BHPI and (−)-105 arms of the experiment. No drug is present during regrow. […] This allows any surviving cells to regrow. After 4 weeks the cells were assayed using MTS. […] (Note: Visual inspection of the wells confirmed that there were no cells in the well treated for 2 weeks with active (−)-105.) To test whether the cells that regrew after BHPI treatment were resistant to BHPI they were re-treated for another cycle (BHPI Retreat) and shown to retain sensitivity to BHPI killing. (n=8 biological replicates ±SEM.

[1] = Pharmacokinetics, brain penetration and tolerability in mice; format: in vivo, mouse
Protocol: FIG. 40. SERK-F6 is tolerated, reaches biologically relevant concentrations, and crosses the blood-brain barrier in vivo. a, Serum concentrations of SERK-F6 after indicated doses, route of administration, and time. Concentration was determined via LC/MS/MS analysis. […] AUC: Area Under the Curve, Cmax: maximum concentration, t1/2: half-life. c,d, Mice (CD-1) were treated with the indicated doses and times, then sacrificed and their serum and brains collected. Concentrations were determined via LC/MS/MS analysis. […] Treatment arms: vehicle daily (n=3), vehicle weekly (n=3), fulv. weekly (5 mg/mouse, s.c., n=6), SERK-F6 daily (10 or 40 mg/kg p.o.). Vehicle arms were combined. g, Mass of tumors harvested from mice. h, observed murine weight during this MCF-7 study (n=6). i,j, Tumor measurements for MCF-7 bilateral orthotopic model (n=4-5).
The pharmacokinetics of SERK-F6 was measured in mice (FIG. 40A-B).

T47D cells = settings: 100, 500 and 1,000 nM; 24 hours; n=1
Protocol: One such change is loss of plasma membrane polarity. This is monitored using Annexin V. Dying cells also take up the dye propidium iodide. Propidium iodide (PI) fluoresces when it is intercalated into DNA. These assays monitor cells at specific stages of cell death.
FLOW CYTOMETRY (FITC) ASSAYS: Cells were seeded in 12-well plates, 75,000 cells/well, and allowed to adhere overnight. The next day, the indicated concentrations of raptinal (positive control), (−)-105, (±)-105, and (+)-105 were added and allowed to incubate at 37° C. for 24 hours (Final Volume: 1 ml, 0.1% DMSO). After incubation, cells were harvested and resuspended in 350 μl of cold Annexin binding buffer (10 mM HEPES, 140 mM NaCl, 2.5 mM CaCl2, pH 7.4) premixed with Annexin V-FITC and PI dyes. Samples were analyzed on a BD Biosciences LSRII flow cytometer, and data analysis was performed using FSC Express Version 5-6. Cell death was assessed relative to a DMSO treated control.
T47D, human breast cancer cells were plated at 75,000 cells/well. The next day, DMSO vehicle, 10 μM raptinal (control for 100% cell death), or 0, 50, 100 500 and 1,000 nM of BHPI or (±)-105, or 1,000 nM ICI/fulvestrant or 1,000 nM OHT was added. After 24 hours viable cells were determined by FACS using annexin V-FITC and propidium iodide dyes. (n=3 independent experiments ±SEM).
75,000 ERα positive T47D, human breast cancer cells, were plated/well. The next day, DMSO vehicle, 10 μM raptinal (control for 100% cell death), or 100 500 and 1,000 nM of (+)-105, or (−)-105 was added. After 24 hours viable cells were determined by FACS using annexin V-FITC and propidium iodide dyes. (n=1).

MCF-7 tumors = assay: MCF-7 orthotopic tumor model; format: in vivo, mouse
Protocol: FIG. 39. SERK-F6 eradicates wild-type ERα tumors via hyperactivation of aUPR. a, MCF-7 orthotopic tumors were established in Nu/J ovariectomized mice supplemented with a 60 day E2 pellet (0.36 mg) and grown to ˜400 mm^3 (28 days to establish), randomized, then treated with vehicle daily (n=3), vehicle weekly (n=3), fulv. weekly (5 mg/mouse, s.c., n=6), SERK-F6 daily (10 or 40 mg/kg p.o.). Vehicle arms were averaged. p values: *: p≤0.05, **: p≤0.01, ***: p≤0.001, ****: p≤0.0001. Tumor images were taken at the end of the study (day 21) and are representative of all tumors (n=6). b-e, MCF-7 cells were orthotopically bi-laterally grafted and tumors were grown until total tumor burden was ˜400 mm^3 prior to daily treatment with vehicle or SERK-F6 (40 mg/kg p.o.). Mice (n=5 per arm) were sacrificed after 3 days (b,c) and 7 days (d,e) and tumors harvested. […] Vinculin (Vin) was used as a loading control. […] Error bars represent S.E.M.
To probe the efficacy of SERK-F6 for killing ERα positive tumors, large MCF-7 tumors were grown and then intervened with therapy. […] The mice were then sacrificed prior to complete tumor eradication.

[2] = system: protein synthesis in Caov-3 cells; assay: Protein synthesis inhibition (35S-methionine incorporation), Caov-3; format: cell-based, human; settings: 1,000 nM
Protocol: ERα positive Caov-3, human ovarian cancer cells, were treated for the indicated times with 1,000 nM BHPI or 1,000 nM (−)-105. Cells were briefly labeled with ^35S-methionine. Incorporation of labeled ^35S-methionine into protein was determined by trichloroacetic acid precipitation and trapping of precipitated protein, but not free amino acids, in small Whatman hardened ashless filters. After solubilizing the protein in the filters with base and neutralization with acid, the samples were counted in a liquid scintillation counter. Shown is the average (n≥3) percent inhibition of protein synthesis compared to the 0-time sample. The near quantitative inhibition of protein synthesis by (−)-105 is consistent with (−)-105 inducing lethal hyperactivation of the PERK arm of the UPR. Even non-growing cells are constantly degrading protein and making new proteins. Cells in which nearly all (>90%) of protein synthesis is inhibited cannot grow and will ultimately die.

## O=C1Nc2c(C(F)(F)F)cccc2C1(c1ccc(O)cc1)c1ccc(OC(F)(F)F)cc1 (single isomer, unassigned; (-)) [(−)-105, 3-(4-hydroxyphenyl)-3-(4-(trifluoromethoxy)phenyl)-7-(trifluoromethyl)indolin-2-one]
TYS-Luc cells; 1 μM for 2 weeks, then 4 weeks without drug
  regrowth of cells after drug removal: no regrowth
TYS-Luc cells; 1 μM, 2 weeks treatment
  TYS-Luc cells killed: 100%
[1]; CD-1 mice, serum and brain LC/MS/MS
  blood-brain barrier penetration: blood-brain barrier penetrant
[1]; long-term treatment
  effect on ERα tissues as measured by circulating estradiol levels: does not ablate ERα tissues
[1]; mouse, in vivo
  tolerability in vivo: well-tolerated
[1]; serum, LC/MS/MS
  concentrations reached in vivo: can achieve biologically relevant concentrations in-vivo
T47D cells
  activity of enantiomers (cell death): active
MCF-7 tumors; 40 mg/kg p.o., 3 and 7 days
  UPR markers in tumors (western blot): increases in P-PERK and P-eiF2alpha levels
MCF-7 tumors; daily treatment
  murine weight during the study: did not lead to any change in murine weight
MCF-7 tumors; large established MCF-7 tumors, SERK-F6 10 or 40 mg/kg p.o. daily, fulv. 5 mg/mouse s.c. weekly
  tumor response: dramatic tumor regressions
[2]
  inhibition of the synthesis of new proteins: near-quantitative
